Test results: patent US20130231346A1, “METHODS OF TREATING CANCER” (GLAXOSMITHKLINE INTELLECTUAL PROPERTY (NO.2) LIMITED, priority 2010, published 2013)

Tests used:
H2291 NSCLC cells = assay: Caspase 3/7 activation, H2291; assay type: cell-based; set-up: key: −: lack of caspase 3/7 activation after 24 hours of compound treatment; ++: moderate; +++: strong; ++++: very strong; conditions: H2291, KRAS^G12F; BRG1 WT, LKB1 WT, CDKN2A WT; 24 hours
Method: (§1) Inhibition of cell growth and induction of apoptosis were determined by CellTiter-Glo® and caspase 3/7 activation assays after 72 and 24 hours of treatment, respectively.

A549 NSCLC cells = assay: Caspase 3/7 activation, A549; assay type: cell-based; set-up: key: −: lack of caspase 3/7 activation after 24 hours of compound treatment; ++: moderate; +++: strong; ++++: very strong; conditions: A549, KRAS^G12S; BRG1 MUT, LKB1 MUT, CDKN2A MUT; 24 hours
Method: as §1

COR-L23 NSCLC cells = assay: Caspase 3/7 activation, COR-L23; assay type: cell-based; set-up: key: −: lack of caspase 3/7 activation after 24 hours of compound treatment; ++: moderate; +++: strong; ++++: very strong; conditions: COR-L23, KRAS^G12V; BRG1 WT, LKB1 WT, CDKN2A WT; 24 hours
Method: (§2) A panel of 24 non-small cell lung carcinoma (NSCLC) cell lines harboring RAS mutations was analyzed for genomic alterations, gene expression profiling and protein phosphorylation in MAPK and PI3K pathways. Inhibition of cell growth and induction of apoptosis were determined by CellTiter-Glo® and caspase 3/7 activation assays after 72 and 24 hours of treatment, respectively.

HOP62 NSCLC cells = assay: Caspase 3/7 activation, HOP62; assay type: cell-based; set-up: key: −: lack of caspase 3/7 activation after 24 hours of compound treatment; ++: moderate; +++: strong; ++++: very strong; conditions: HOP62, KRAS^G12c; BRG1 WT, LKB1 WT, CDKN2A MUT; 24 hours
Method: as §2

H2347 NSCLC cells = assay: Caspase 3/7 activation, H2347; assay type: cell-based; set-up: key: −: lack of caspase 3/7 activation after 24 hours of compound treatment; ++: moderate; +++: strong; ++++: very strong; conditions: H2347, KRAS^Q61K; BRG1 WT, LKB1 WT, CDKN2A WT; 24 hours
Method: as §1

H2009 NSCLC cells = assay: Caspase 3/7 activation, H2009; assay type: cell-based; set-up: key: −: lack of caspase 3/7 activation after 24 hours of compound treatment; ++: moderate; +++: strong; ++++: very strong; conditions: H2009, KRAS^G12A; BRG1 WT, LKB1 WT, CDKN2A WT; 24 hours
Method: as §1

H441 NSCLC cells = assay: Caspase 3/7 activation, H441; assay type: cell-based; set-up: key: −: lack of caspase 3/7 activation after 24 hours of compound treatment; ++: moderate; +++: strong; ++++: very strong; conditions: H441, KRAS^G12V; BRG1 WT, LKB1 WT, CDKN2A WT; 24 hours
Method: as §1

H358 NSCLC cells = assay: Caspase 3/7 activation, H358; assay type: cell-based; set-up: key: −: lack of caspase 3/7 activation after 24 hours of compound treatment; ++: moderate; +++: strong; ++++: very strong; conditions: H358, KRAS^G12c; BRG1 WT, LKB1 WT, CDKN2A WT; 24 hours
Method: as §1

H1299 NSCLC cells = assay: Caspase 3/7 activation, H1299; assay type: cell-based; set-up: key: −: lack of caspase 3/7 activation after 24 hours of compound treatment; ++: moderate; +++: strong; ++++: very strong; conditions: H1299, KRAS^Q61H; BRG1 MUT, LKB1 WT, CDKN2A WT; 24 hours
Method: as §1

[1] = test system: RAS-mutant NSCLC cell lines; assay: Inhibition of cell growth (CellTiter-Glo) in panel of RAS-mutant NSCLC cell lines; conditions: Ras mut NSCLC cell lines; CellTiter-Glo, 72 hours of treatment
Method: Cells are plated in 384-well plates at 500 cells/well in culture media appropriate for each cell type, supplemented with 10% FBS and 1% penicillin/streptomycin, and incubated overnight at 37° C., 5% CO2. Cells are treated in a grid manner with dilution of Compound A^2 (20 dilutions, including no compound, of 2-fold dilutions starting from 1-20 μM depending of compound) from left to right on 384-well plate and also treated with Compound B^2 (20 dilutions, including no compound, of 2-fold dilutions starting from 1-20 μM depending of compound) from top to bottom on 384-well plate and incubated as above for a further 72 hours. In some instances compounds are added in a staggered manner and incubation time can be extended up to 7 days. Cell growth is measured using CellTiter-Glo® reagent according to the manufacturer's protocol and signals are read on a PerkinElmer EnVision™ reader set for luminescence mode with a 0.5-second read.
Results are expressed as a percentage of the t=0 value and plotted against compound(s) concentration. The t=0 value is normalized to 100% and represents the number of cells present at the time of compound addition. The cellular response is determined for each compound and/or compound combination using a 4- or 6-parameter curve fit of cell viability against concentration using the IDBS XLfit plug-in for Microsoft Excel software and determining the concentration required for 50% inhibition of cell growth (gIC50). Background correction is made by subtraction of values from wells containing no cells.
as §2

A427 NSCLC cells = assay: Caspase 3/7 activation, A427; assay type: cell-based; set-up: key: −: lack of caspase 3/7 activation after 24 hours of compound treatment; ++: moderate; +++: strong; ++++: very strong; conditions: A427, KRAS^G12D; BRG1 MUT, LKB1 MUT, CDKN2A WT; 24 hours
Method: as §1

H727 NSCLC cells = assay: Caspase 3/7 activation, H727; assay type: cell-based; set-up: key: −: lack of caspase 3/7 activation after 24 hours of compound treatment; ++: moderate; +++: strong; ++++: very strong; conditions: H727, KRAS^G12V; BRG1 WT, LKB1 WT, CDKN2A WT; 24 hours
Method: as §1

H157 NSCLC cells = assay: Caspase 3/7 activation, H157; assay type: cell-based; set-up: key: −: lack of caspase 3/7 activation after 24 hours of compound treatment; ++: moderate; +++: strong; ++++: very strong; conditions: H157, KRAS^G12R; BRG1 MUT, LKB1 MUT, CDKN2A WT; 24 hours
Method: as §2

Calu6 NSCLC cells = assay: Caspase 3/7 activation, Calu6; assay type: cell-based; set-up: key: −: lack of caspase 3/7 activation after 24 hours of compound treatment; ++: moderate; +++: strong; ++++: very strong; conditions: Calu6, KRAS^Q61K; BRG1 WT, LKB1 WT, CDKN2A WT; 24 hours
Method: as §1

H460 NSCLC cells = assay: Caspase 3/7 activation, H460; assay type: cell-based; set-up: key: −: lack of caspase 3/7 activation after 24 hours of compound treatment; ++: moderate; +++: strong; ++++: very strong; conditions: H460, KRAS^Q61H; BRG1 WT, LKB1 MUT, CDKN2A MUT; 24 hours
Method: as §2

SW1573 NSCLC cells = assay: Caspase 3/7 activation, SW1573; assay type: cell-based; set-up: key: −: lack of caspase 3/7 activation after 24 hours of compound treatment; ++: moderate; +++: strong; ++++: very strong; conditions: SW1573, KRAS^G12C; BRG1 WT, LKB1 WT, CDKN2A MUT; 24 hours
Method: as §2

H23 NSCLC cells = assay: Caspase 3/7 activation, H23; assay type: cell-based; set-up: key: −: lack of caspase 3/7 activation after 24 hours of compound treatment; ++: moderate; +++: strong; ++++: very strong; conditions: H23, KRAS^G12c; BRG1 MUT, LKB1 MUT, CDKN2A WT; 24 hours
Method: as §1

H2122 NSCLC cells = assay: Caspase 3/7 activation, H2122; assay type: cell-based; set-up: key: −: lack of caspase 3/7 activation after 24 hours of compound treatment; ++: moderate; +++: strong; ++++: very strong; conditions: H2122, KRAS^G12c; BRG1 WT, LKB1 MUT, CDKN2A MUT; 24 hours
Method: as §1

H1792 NSCLC cells = assay: Caspase 3/7 activation, H1792; assay type: cell-based; set-up: key: −: lack of caspase 3/7 activation after 24 hours of compound treatment; ++: moderate; +++: strong; ++++: very strong; conditions: H1792, KRAS^G12c; BRG1 WT, LKB1 WT, CDKN2A WT; 24 hours
Method: as §1

SMILES | Apoptosis Response (caspase 3/7 activation) (H2291 NSCLC cells) | Apoptosis Response (caspase 3/7 activation) (A549 NSCLC cells) | Apoptosis Response (caspase 3/7 activation) (COR-L23 NSCLC cells) | Apoptosis Response (caspase 3/7 activation) (HOP62 NSCLC cells) | Apoptosis Response (caspase 3/7 activation) (H2347 NSCLC cells) | Apoptosis Response (caspase 3/7 activation) (H2009 NSCLC cells) | Apoptosis Response (caspase 3/7 activation) (H441 NSCLC cells) | Apoptosis Response (caspase 3/7 activation) (H358 NSCLC cells) | Apoptosis Response (caspase 3/7 activation) (H1299 NSCLC cells) | Response Rate (sensitivity/total lines tested), Cell growth inhibition [1] | Apoptosis Response (caspase 3/7 activation) (A427 NSCLC cells) | Apoptosis Response (caspase 3/7 activation) (H727 NSCLC cells) | Apoptosis Response (caspase 3/7 activation) (H157 NSCLC cells) | Apoptosis Response (caspase 3/7 activation) (Calu6 NSCLC cells) | Apoptosis Response (caspase 3/7 activation) (H460 NSCLC cells) | Apoptosis Response (caspase 3/7 activation) (SW1573 NSCLC cells) | Apoptosis Response (caspase 3/7 activation) (H23 NSCLC cells) | Apoptosis Response (caspase 3/7 activation) (H2122 NSCLC cells) | Apoptosis Response (caspase 3/7 activation) (H1792 NSCLC cells)
CC(=O)Nc1cccc(-n2c(=O)n(C3CC3)c(=O)c3c(Nc4ccc(I)cc4F)n(C)c(=O)c(C)c32)c1 [Compound A, N-{3-[3-cyclopropyl-5-(2-fluoro-4-iodo-phenylamino)-6,8-dimethyl-2,4,7-trioxo-3,4,6,7-tetrahydro-2H-pyrido[4,3-d]pyrimidin-1-yl]phenyl}acetamide] | ++ | − | − | − | ++ | − | − | − | − | 38% (9/24) | − | ++ | − | ++ | − | − | − | ++ | ++
CC(=O)O[C@@]12CO[C@@H]1C[C@H](O)[C@@]1(C)C(=O)[C@H](O)C3=C(C)[C@@H](OC(=O)[C@H](O)[C@@H](NC(=O)OC(C)(C)C)c4ccccc4)C[C@@](O)([C@@H](OC(=O)c4ccccc4)[C@H]21)C3(C)C [Docataxel, (2R,3S)—N-carboxy-3-phenylisoserine,N-tert-butyl ester, 13-ester with 5β-20-epoxy-1,2α,4,7β,10β,13α-hexahydroxytax-11-en-9-one 4-acetate 2-benzoate, trihydrate] | − | − | − | ++ | − | − | − | ++ | − | 88% (21/24) | ++ | − | ++ | ++ | ++ | − | +++ | − | +++
